Measurements: PubChem BioAssay AID330 (DTP/NCI, 2004)
“And” between values parts separate entries of the source, which are not always exact repeats. Equal entries are not always repeated. Inconclusive results and toxic doses are left out. Square brackets hold non-standard residues; d marks the D form. Peptide text beside a SMILES is read from it. ξ: configuration not given here. ξLac(3-iPr) = CC(C)CC(O)C(=O)O; NMeV = CN[CH](C(=O)O)C(C)C; NMeA = CN[CH](C)C(=O)O; βAla = NCCC(=O)O

System: P388 leukemia ip, CD2F1 mice, survival T/C
Assay: NCI In Vivo Anticancer Drug Screen. Data for tumor model P388 Leukemia (intraperitoneal) in CD2F1 (CDF1) mice
Settings: endpoint: median survival time, higher = longer survival
Summary of the method: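 Mice carrying the transplanted tumor received test compound or vehicle. Survival was recorded in each group, and the value is the treated-group measurement divided by that of the vehicle-treated control group.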

[1] = dose: 50.0 mg/kg/injection, schedule: Q01DX005 (ip), vehicle: saline with Tween-80
[2] = dose: 100.0 mg/kg/injection, schedule: Q01DX005 (ip), vehicle: saline with Tween-80
[3] = dose: 50.0 mg/kg/injection, schedule: Q01DX009 (ip), vehicle: saline with Tween-80
[4] = dose: 100.0 mg/kg/injection, schedule: Q01DX009 (ip), vehicle: saline with Tween-80
[5] = dose: 15.0 mg/kg/injection, schedule: Q01DX005 (ip), vehicle: saline with Tween-80
[6] = dose: 30.0 mg/kg/injection, schedule: Q01DX005 (ip), vehicle: saline with Tween-80
[7] = dose: 60.0 mg/kg/injection, schedule: Q01DX005 (ip), vehicle: saline with Tween-80
[8] = dose: 240.0 mg/kg/injection, schedule: Q01DX005 (ip), vehicle: saline with Tween-80
[9] = dose: 200.0 mg/kg/injection, schedule: Q01DX005 (ip), vehicle: saline with Tween-80

Cc1nc(SCC(N)=O)nc2sc(SCC(N)=O)nc12
T/C (dose: 100.0 mg/kg/injection, schedule: Q04DX002 (ip), vehicle: suspension in saline): 96 % of control
T/C (dose: 200.0 mg/kg/injection, schedule: Q04DX002 (ip), vehicle: suspension in saline): 99 % of control
T/C (dose: 400.0 mg/kg/injection, schedule: Q04DX002 (ip), vehicle: suspension in saline): 98 % of control

CN(C)C1C2(C)CCC(C2)C1(C)C (stereo unspecified)
T/C [1]: 103 % of control
T/C [2]: 102 % of control

CC(C)(C)N=C(c1ccccc1)N1CCCCC1
T/C [3]: 100 % of control
T/C [4]: 90 % of control

COc1ccc(N=Nc2c(-c3cccs3)nn(C(=S)SC)c2C(F)(F)F)cc1
T/C (dose: 7.5 mg/kg/injection, schedule: Q01DX005 (ip), vehicle: saline with Tween-80): 101 % of control
T/C [5]: 108 % of control
T/C [6]: 95 % of control

[N-]=[N+]=NC(=O)c1cnn(-c2ccccc2)c1N
T/C [5]: 101 % of control
T/C [6]: 97 % of control
T/C [7]: 106 % of control and 95 % of control

N#C/C(=C\c1cccnc1)C(N)=S
T/C (dose: 50.0 mg/kg/injection, schedule: Q01DX009 (ip), vehicle: saline): 101 % of control
T/C (dose: 100.0 mg/kg/injection, schedule: Q01DX009 (ip), vehicle: saline): 88 % of control
T/C (dose: 200.0 mg/kg/injection, schedule: Q01DX009 (ip), vehicle: saline): 104 % of control

COC(=O)/C=C1\C[C@H]2C[C@]3(O)O[C@H](C[C@@H](O)CC(=O)O[C@@H]([C@@H](C)O)C[C@@H]4C/C(=C\C(=O)OC)[C@H](OC(C)=O)[C@@](O)(O4)C(C)(C)/C=C/[C@@H](C1)O2)C[C@H](OC(=O)CC(C)C)C3(C)C
T/C (dose: 3.0 micrograms/kg/injection, schedule: Q01DX009 (ip), vehicle: saline + alcohol): 111 % of control
T/C (dose: 5.0 micrograms/kg/injection, schedule: Q01DX009 (ip), vehicle: saline + alcohol): 113 % of control

CCC(C)C1NC(=O)C2CCCN2C(=O)C(CC(C)C)OC(=O)CCNC(=O)C(C)N(C)C(=O)C(C(C)C)N(C)C1=O (stereo unspecified) (cyclo([ξLac(3-iPr)]PI[NMeV][NMeA][βAla]); configuration not given here)
T/C (dose: 0.63 mg/kg/injection, schedule: Q01DX009 (ip), vehicle: saline): 115 % of control
T/C (dose: 1.25 mg/kg/injection, schedule: Q01DX009 (ip), vehicle: saline): 113 % of control
T/C (dose: 2.5 mg/kg/injection, schedule: Q01DX009 (ip), vehicle: saline): 117 % of control
T/C (dose: 5.0 mg/kg/injection, schedule: Q01DX005 (ip), vehicle: saline with Tween-80): 123 % of control
T/C (dose: 5.0 mg/kg/injection, schedule: Q01DX009 (ip), vehicle: saline): 120 % of control
T/C (dose: 10.0 mg/kg/injection, schedule: Q01DX005 (ip), vehicle: saline with Tween-80): 119 % of control

COc1cc(C(NC(N)=O)c2cc3c(cc2O)OCO3)cc(OC)c1O (stereo unspecified)
T/C (dose: 60.0 mg/kg/injection, schedule: Q01DX005 (ip), vehicle: Klucel + Tween-80): 100 % of control
T/C (dose: 120.0 mg/kg/injection, schedule: Q01DX005 (ip), vehicle: Klucel + Tween-80): 88 % of control
T/C (dose: 240.0 mg/kg/injection, schedule: Q01DX005 (ip), vehicle: Klucel + Tween-80): 88 % of control

CC1=CC(=O)C=C(C)C1=O
T/C (dose: 1.56 mg/kg/injection, schedule: Q04DX003 (ip), vehicle: saline with Tween-80): 106 % of control
T/C (dose: 3.12 mg/kg/injection, schedule: Q04DX003 (ip), vehicle: saline with Tween-80): 89 % of control
T/C (dose: 6.25 mg/kg/injection, schedule: Q04DX003 (ip), vehicle: saline with Tween-80): 103 % of control

CC(=O)ON=C(C1CC1)C1CC1
T/C (dose: 37.5 mg/kg/injection, schedule: Q01DX009 (ip), vehicle: other): 100 % of control
T/C (dose: 75.0 mg/kg/injection, schedule: Q01DX009 (ip), vehicle: other): 106 % of control
T/C (dose: 150.0 mg/kg/injection, schedule: Q01DX009 (ip), vehicle: other): 100 % of control
T/C (dose: 300.0 mg/kg/injection, schedule: Q01DX009 (ip), vehicle: other): 110 % of control

COc1ccc(NC(=O)Nc2ccc(NC(C)=O)cc2)c(OC)c1
T/C [5]: 93 % of control
T/C [6]: 92 % of control
T/C [7]: 86 % of control
T/C [8]: 88 % of control

COc1cccc2c1C(=O)c1c(O)c3c(c(O)c1C2=O)CC(O)(c1cscn1)CC3OC1CC(N)C(O)C(C)O1 (stereo unspecified)
T/C (dose: 25.0 mg/kg/injection, schedule: Q04DX003 (ip), vehicle: water): 118 % of control
T/C (dose: 50.0 mg/kg/injection, schedule: Q04DX003 (ip), vehicle: water): 157 % of control
T/C (dose: 100.0 mg/kg/injection, schedule: Q04DX003 (ip), vehicle: water): 124 % of control

COC(=O)c1c(OC)cc2c(Cl)c3c(c(O)c2c1C)C(=O)[C@@]1(O)C(=O)C=C(OC)[C@H](O)[C@@]1(O)C3=O
T/C (dose: 12.5 mg/kg/injection, schedule: Q01DX005 (ip), vehicle: saline with Tween-80): 104 % of control
T/C (dose: 25.0 mg/kg/injection, schedule: Q01DX005 (ip), vehicle: saline with Tween-80): 109 % of control
T/C [1]: 95 % of control
T/C [2]: 104 % of control
T/C [9]: 110 % of control

C=CCc1cc(C(CC)C(CC)c2ccc(OCCN(CC)CC)c(CC=C)c2)ccc1OCCN(CC)CC (stereo unspecified)
T/C [1]: 95 % of control
T/C [2]: 98 % of control
T/C [9]: 101 % of control

COc1ccc(N=Nc2c(C)nn(C(=S)S)c2C)cc1
T/C [1]: 113 % of control
T/C [2]: 101 % of control
T/C [9]: 106 % of control

N#Cc1ccc(OC(=O)Nc2ccccc2Cl)cc1
T/C [7]: 94 % of control
T/C (dose: 120.0 mg/kg/injection, schedule: Q01DX005 (ip), vehicle: saline with Tween-80): 95 % of control
T/C [8]: 86 % of control

CCOC(=O)/C(NC(=O)c1ccccc1)=C(\NC(=O)c1ccccc1)C(=O)OCC
T/C (dose: 60.0 mg/kg/injection, schedule: Q01DX005 (ip), vehicle: saline): 104 % of control
T/C (dose: 120.0 mg/kg/injection, schedule: Q01DX005 (ip), vehicle: saline): 96 % of control
T/C (dose: 240.0 mg/kg/injection, schedule: Q01DX005 (ip), vehicle: saline): 96 % of control

O=c1[nH]cnc2nc(SCc3ccc([N+](=O)[O-])cc3)[nH]c12
T/C (dose: 60.0 mg/kg/injection, schedule: Q01DX005 (ip), vehicle: Klucel (hydroxypropylcellulose) (HPC)): 105 % of control
T/C (dose: 120.0 mg/kg/injection, schedule: Q01DX005 (ip), vehicle: Klucel (hydroxypropylcellulose) (HPC)): 102 % of control
T/C (dose: 240.0 mg/kg/injection, schedule: Q01DX005 (ip), vehicle: Klucel (hydroxypropylcellulose) (HPC)): 108 % of control

O=S(=O)(Oc1ccc(Cl)cc1)C(F)(F)C(F)(F)C(F)(F)C(F)(F)F
T/C [3]: 105 % of control
T/C [4]: 108 % of control
T/C (dose: 200.0 mg/kg/injection, schedule: Q01DX009 (ip), vehicle: saline with Tween-80): 105 % of control

c1ccc2cc3c(cc2c1)Cn1c-3nc2ccccc21
T/C (dose: 200.0 mg/kg/injection, schedule: Q04DX003 (ip), vehicle: saline with Tween-80): 92 % of control
T/C (dose: 400.0 mg/kg/injection, schedule: Q04DX003 (ip), vehicle: saline with Tween-80): 100 % of control

C=CCC12CC(COc3ccccc3C(N)=O)OC1=Nc1ccccc1NC2=O (stereo unspecified)
T/C [1]: 113 % of control
T/C [2]: 100 % of control
T/C [9]: 99 % of control

CCn1c2ccccc2c2ccc(N=Cc3ccc(N(C)C)cc3)cc21
T/C (dose: 50.0 mg/kg/injection, schedule: Q01DX009 (ip), vehicle: Klucel (hydroxypropylcellulose) (HPC)): 89 % of control
T/C (dose: 100.0 mg/kg/injection, schedule: Q01DX009 (ip), vehicle: Klucel (hydroxypropylcellulose) (HPC)): 94 % of control
T/C (dose: 200.0 mg/kg/injection, schedule: Q01DX009 (ip), vehicle: Klucel (hydroxypropylcellulose) (HPC)): 103 % of control

Cc1ccc(/[N+]([O-])=N/N2C(=O)c3ccccc3C2=O)cc1
T/C (dose: 25.0 mg/kg/injection, schedule: Q01DX005 (ip), vehicle: Klucel (hydroxypropylcellulose) (HPC)): 101 % of control
T/C (dose: 50.0 mg/kg/injection, schedule: Q01DX005 (ip), vehicle: Klucel (hydroxypropylcellulose) (HPC)): 106 % of control
T/C (dose: 100.0 mg/kg/injection, schedule: Q01DX005 (ip), vehicle: Klucel (hydroxypropylcellulose) (HPC)): 108 % of control

O=C1C2CC=C3CCCC3C2C(=O)C2CC=C3CCCC3C12 (stereo unspecified)
T/C (dose: 7.5 mg/kg/injection, schedule: Q01DX009 (ip), vehicle: saline with Tween-80): 105 % of control
T/C (dose: 15.0 mg/kg/injection, schedule: Q01DX009 (ip), vehicle: saline with Tween-80): 102 % of control
T/C (dose: 30.0 mg/kg/injection, schedule: Q01DX009 (ip), vehicle: saline with Tween-80): 106 % of control

O=C1c2cc3c(-c4ccccc4)sc(-c4ccccc4)c3cc2C(=O)c2c(O)ccc(O)c21
T/C (dose: 12.5 mg/kg/injection, schedule: Q04DX002 (ip), vehicle: saline with Tween-80): 90 % of control
T/C (dose: 25.0 mg/kg/injection, schedule: Q04DX002 (ip), vehicle: saline with Tween-80): 91 % of control
T/C (dose: 50.0 mg/kg/injection, schedule: Q04DX002 (ip), vehicle: saline with Tween-80): 98 % of control and 88 % of control
